Drawing on PubChem BioAssay (NCI), this text covers GI50 and TGI for two compounds.

Some test systems named below: UACC-62 melanoma; IGROV1 ovarian; HL-60(TB) leukemia; UO-31 renal; SF-295 CNS; PC-3 prostate; HCC-2998 colon; HCT-116 colon; ACHN renal; T-47D breast.
Assay in all cases: NCI-60 cell line screen, 48 h

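Method: 48-hour compound exposure of cells in 96-well plates, five concentrations, linear interpolation of endpoints. The concentration for 50% growth inhibition is given as GI50. The concentration for full growth arrest is given as TGI.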 A value given as a limit tells only on which side of the number the result lay.

Take `CC(C)[C@@]12C[C@@H](OC(=O)C3CO3)[C@@](C)(O1)[C@@H]1CC[C@@H](C)[C@H]1[C@@H]2OC(=O)/C=C/c1ccccc1` (stereo not given in full): the GI50 with UACC-62 melanoma was 14.9 µM; in the assay on IGROV1 ovarian it was 24.3 µM; in the assay on HL-60(TB) leukemia it was 22.7 µM; in the assay on UO-31 renal, 1.76 µM; in the assay on SF-295 CNS it was 16.9 µM; with PC-3 prostate, 17.4 µM. The GI50 in the assay on HCC-2998 colon is 18.7 µM; in the assay on HCT-116 colon it was 23.8 µM; in the assay with ACHN renal, 2.34 µM; in the assay on T-47D breast it was 18.8 µM. In addition, the TGI in the assay with UACC-62 melanoma was found to be 34.4 µM; with IGROV1 ovarian, 87.2 µM; in the assay with HL-60(TB) leukemia, 68.3 µM; in the assay on UO-31 renal, 5.57 µM; in the assay with SF-295 CNS, 32.2 µM; in the assay on PC-3 prostate, 61 µM. Further, the TGI with HCC-2998 colon was 35.8 µM; in the assay with HCT-116 colon, above 100 µM; in the assay on ACHN renal, 7.79 µM; in the assay with T-47D breast, above 100 µM.

With `O=C(Nc1ccc(I)cc1F)c1cc(Br)ccc1O`, the GI50 with UACC-62 melanoma is 0.25 µM; in the assay with IGROV1 ovarian, 0.412 µM; in the assay with HL-60(TB) leukemia it was 0.472 µM; in the assay on UO-31 renal, 0.346 µM; with SF-295 CNS, 1.73 µM; in the assay on PC-3 prostate it was 1.77 µM. The GI50 was 2.77 µM in the assay on HCC-2998 colon, 0.411 µM with HCT-116 colon, 0.592 µM in the assay on ACHN renal and 0.353 µM in the assay on T-47D breast. The TGI in the assay with UACC-62 melanoma is 0.812 µM; in the assay on IGROV1 ovarian it was above 100 µM; in the assay on HL-60(TB) leukemia, 3.5 µM; in the assay with UO-31 renal it was 2.24 µM; in the assay with SF-295 CNS, 3.39 µM; with PC-3 prostate it was 7.13 µM. Besides, the TGI in the assay on HCC-2998 colon worked out at 10.7 µM; in the assay with HCT-116 colon, 1.96 µM; in the assay with ACHN renal, 11.4 µM; in the assay on T-47D breast, 2.54 µM.
